# ChEMBL document CHEMBL3632521, “A study of ad-proline peptidomimetic inhibitor of melanoma and endothelial cell invasion through activity towards MMP-2 and MMP-9” (Medchemcomm, 2015)
# The source made the active and inactive calls. The calls are words filed in the database; no cut-off is given here.
# Columns and labels:
# [1] = target: T1, Matrix metalloproteinase-9 (Homo sapiens, UniProt P14780); experiment: Inhibition MMP-9 (unknown origin) using Mca-Lys-Pro-Leu-Gly-Leu-Dpa-Ala-Arg-NH2 as substrate preincubated for 5 mins followed by substrate addition measured for 30 mins by fluorometric assay
# T1 sequence (P14780 whole entry): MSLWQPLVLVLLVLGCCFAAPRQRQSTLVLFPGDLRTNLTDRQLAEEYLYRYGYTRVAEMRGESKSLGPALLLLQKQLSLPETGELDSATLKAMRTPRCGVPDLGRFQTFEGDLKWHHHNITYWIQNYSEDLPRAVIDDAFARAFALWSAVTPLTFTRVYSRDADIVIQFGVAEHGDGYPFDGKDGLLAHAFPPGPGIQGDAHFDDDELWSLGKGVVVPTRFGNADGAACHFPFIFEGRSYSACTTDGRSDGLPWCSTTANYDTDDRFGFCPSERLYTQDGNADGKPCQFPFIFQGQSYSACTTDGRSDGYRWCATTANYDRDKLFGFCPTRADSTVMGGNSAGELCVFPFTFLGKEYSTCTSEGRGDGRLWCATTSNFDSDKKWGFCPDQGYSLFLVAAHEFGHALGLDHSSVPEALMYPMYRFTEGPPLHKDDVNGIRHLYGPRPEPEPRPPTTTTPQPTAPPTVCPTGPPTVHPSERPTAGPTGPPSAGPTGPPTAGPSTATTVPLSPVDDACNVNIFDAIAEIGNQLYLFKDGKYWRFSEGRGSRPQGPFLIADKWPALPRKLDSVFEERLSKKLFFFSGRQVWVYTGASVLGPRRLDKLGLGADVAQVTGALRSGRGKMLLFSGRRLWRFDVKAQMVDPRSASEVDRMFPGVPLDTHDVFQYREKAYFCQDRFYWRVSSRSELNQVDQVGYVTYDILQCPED
# [2] = target: 72 kDa type IV collagenase (Homo sapiens, UniProt P08253); experiment: Inhibition MMP-2 (unknown origin) using Mca-Lys-Pro-Leu-Gly-Leu-Dpa-Ala-Arg-NH2 as substrate preincubated for 5 mins followed by substrate addition measured for 30 mins by fluorometric assay
# Chain of 72 kDa type IV collagenase (P08253 whole entry): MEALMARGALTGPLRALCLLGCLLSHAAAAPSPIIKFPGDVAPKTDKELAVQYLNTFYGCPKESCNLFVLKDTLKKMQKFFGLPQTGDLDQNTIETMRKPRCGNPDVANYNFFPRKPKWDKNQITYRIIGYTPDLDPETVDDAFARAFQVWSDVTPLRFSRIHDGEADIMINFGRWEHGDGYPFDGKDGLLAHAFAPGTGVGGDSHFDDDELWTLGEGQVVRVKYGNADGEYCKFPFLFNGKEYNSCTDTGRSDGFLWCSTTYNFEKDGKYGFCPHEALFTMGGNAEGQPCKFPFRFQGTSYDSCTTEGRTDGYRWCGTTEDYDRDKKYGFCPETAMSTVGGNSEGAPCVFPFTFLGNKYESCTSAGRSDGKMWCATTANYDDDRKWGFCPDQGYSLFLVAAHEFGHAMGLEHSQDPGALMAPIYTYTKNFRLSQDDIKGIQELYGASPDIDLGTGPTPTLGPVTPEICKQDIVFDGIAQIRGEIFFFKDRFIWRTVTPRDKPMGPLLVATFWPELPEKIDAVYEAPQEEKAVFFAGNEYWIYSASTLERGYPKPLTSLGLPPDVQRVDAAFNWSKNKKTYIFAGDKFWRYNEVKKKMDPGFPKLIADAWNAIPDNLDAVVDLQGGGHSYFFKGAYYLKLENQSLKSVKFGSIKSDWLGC
# Mus musculus = organism: Mus musculus; experiment: Antiangiogenic activity in FVB mouse receiving 20 uM compound containing matrigel mixtures with heparin resuspended in EGM-2 medium assessed as reduction in capillary network formation after 5 days by microscopy based matrigel sponge assay; format: functional, organism-based
# [3] = target: T1, Matrix metalloproteinase-9; experiment: Inhibition of gelatinolytic activity of pro-MMP9 in human endothelial progenitor cells assessed as reduction in active form of protein at 20 uM by gelatin zymography
# EPC = experiment: Antiinvasive activity in human endothelial progenitor cells at 20 uM after 24 hrs by matrigel assay; format: functional
# [4] = target: T1, Matrix metalloproteinase-9; experiment: Inhibition of gelatinolytic activity of pro-MMP9 in human A375P cells assessed as reduction in active form of protein by gelatin zymography; format: cell-based
# [5] = Cytostatic activity in human A375P cells at 2.5 to 50 uM after 24 hrs by trypan blue based inverted-phase microscopic analysis; format: ADME, cell-based
# [6] = Cytotoxic activity in human A375P cells at 2.5 to 50 uM after 24 hrs by trypan blue based inverted-phase microscopic analysis; format: cell-based
# A375P = experiment: Antiinvasive activity in human A375P cells assessed as reduction in tumor cell migration at 20 uM measured for 6 hrs by matrigel assay; format: functional, cell-based
# [7] = Cytostatic activity in human A375P cells at 2.5 to 50 uM after 72 hrs by trypan blue based inverted-phase microscopic analysis; format: ADME, cell-based
IC50 ([1]; read-out: IC50) [µM],IC50 [2],IC50 ([2]; read-out: IC50) [µM],Compound,further results
1.2,,,O=C(NO)[C@H]1C[C@H](n2cc(-c3ccccc3)nn2)CN1S(=O)(=O)c1ccc(Cl)c(Cl)c1,
1.71,Not Active,,COc1ccc(C(=O)N[C@H]2C[C@H](C(=O)NO)N(S(=O)(=O)c3ccc(Cl)c(Cl)c3)C2)c(OC)c1,
0.9,Not Active,,O=C(NO)[C@H]1C[C@@H](OCc2ccccc2)CN1S(=O)(=O)c1ccc(Cl)c(Cl)c1,
0.06,,0.36,O=C(NO)[C@H]1C[C@H](NS(=O)(=O)c2ccc(-c3ccccc3)cc2)CN1S(=O)(=O)c1ccc(Cl)c(Cl)c1,
,,,O=C(N[C@H]1C[C@H](C(=O)NO)N(S(=O)(=O)c2ccc(Cl)c(Cl)c2)C1)c1cccs1,IC50 [1]: Not Active
0.56,,0.45,COc1ccc(C(=O)N[C@@H]2C[C@H](C(=O)NO)N(S(=O)(=O)c3ccc(Cl)c(Cl)c3)C2)c(OC)c1,Activity (Mus musculus): Active; inhibition [3]: Active; Activity (EPC): Active; inhibition [4]: Dose-dependent effect; Activity [5]: Non-toxic; Activity [6]: Non-toxic; Activity (A375P): Active; Activity [7]: Toxic
0.59,Not Active,,O=C(NO)[C@H]1C[C@@H](NS(=O)(=O)c2ccc(-c3ccccc3)cc2)CN1S(=O)(=O)c1ccc(Cl)c(Cl)c1,
0.1,,0.144,O=C(N[C@@H]1C[C@H](C(=O)NO)N(S(=O)(=O)c2ccc(Cl)c(Cl)c2)C1)c1cccs1,
0.36,,,O=C(/C=C/c1ccco1)N[C@H]1C[C@H](C(=O)NO)N(S(=O)(=O)c2ccc(Cl)c(Cl)c2)C1,
